The values that follow come from patent US6562595B2, “Dominant selectable marker for gene transformation and disruption in yeasts” (McGill University, priority 2000, dated 2003).

In experiment [1] the test system is C. albicans strain SC5314. As to the kind of experiment: Halo assay (zones of inhibition on confluent plates). It counts as cell-based, Candida albicans. How it is done: (§1) Confluent plates of either S. cerevisiae diploid strain SEY6210 (left panel) or C. albicans strain SC5314 (right panel) were spotted with 5 μl of destomycin (DSM), blasticidin (BSN), nourseothricin (NST), geneticin (G418), zeocin (ZEO), and puromycin (PUR) using concentrations of 10 mg/ml, 1 mg/ml, 0.5 mg/ml, 0.25 mg/ml, 0.125 mg/ml, and 0.06 mg/ml (top to bottom). Zones of inhibition were examined after overnight growth; clear halos indicate antifungal activity;
(§2) To explore the possibility of developing a dominant selectable marker for C. albicans, geneticin, the aminoglycoside used in dominant selection studies in S. cerevisiae was initially examined for antifungal activity in C. albicans (FIG. 1). […] When a number of alternative commercially available antibiotics including zeocin, destomycin, nourseothricin, blasticidin, and puromycin were tested for antifungal activity, the present inventors discovered that C. albicans was sensitive to nourseothricin at a concentration of about 200 μg/ml. […] C. albicans was also found to be sensitive to blasticidin. […] (Webster et al., 1983, Gene 26:243-252).

Experiment [2] relates to S. cerevisiae diploid strain SEY6210. Described as above. It counts as cell-based, Saccharomyces cerevisiae. The conditions noted are these: at concentration dramatically below that at which geneticin acts. How it is done: as §1, §2
In experiment [3] the test system is S. cerevisiae strain maintaining the geneticin resistance gene KanR. The experiment is described as follows: Nourseothricin sensitivity of geneticin-resistant (KanR) strain. Type of experiment: cell-based, Saccharomyces cerevisiae. Particulars: S. cerevisiae strain with KanR. The text has this:
The present inventors also compared the sensitivity of NST to geneticin in S. cerevisiae.

Experiment [4] relates to C. albicans CAI4 maintaining pRC18 vector and parent strain SC5314. As to the kind of experiment: Growth on nourseothricin-supplemented plates. Type of experiment: cell-based, Candida albicans. Particulars: 400 μg/ml; irrespective of carbon source (1% Casamino acid or YEP 2% glucose). How it is done:
ASTHMA, PSMP, and vector alone (lacking either SAT expression module) plasmids were transformed into CAI4 and directly selected on YPD-drug supplemented plates (400 μg/ml) prior to being restreaked onto a YPD plate containing 400 μg/ml nourseothricin. A) Six independent ASTHMA transformants, as well as the negative controls CAI4, containing pRC18, and the parent strain, SC5314 are shown after two days growth at 30° C. on YPD plates containing 400 μg/ml NST. B) Four independent PSMP transformants, as well as the negative controls, CAI4 maintaining pRC18, and SC5314, grown on YPD (left plate), and either derepressing conditions (1% Casamino acid+300 μg/ml NST, center plate), or repressing conditions (YPD+300 μg/ml NST, right plate) for PCK1 promoter-dependent expression of SAT. Plates were incubated two days at 30° C.; and
The composition of a YPD medium for culturing yeast contains 1% yeast extract, 2% bactopeptone and 2% glucose. Agar was added in an amount of 2% to the medium in the case of a plate form. Transformant were selected on Ura+ protophy and subsequently streaked onto nourseothricin-supplemented plates containing either 1% Casamino acid (derepressing conditions) or YEP containing 2% glucose (repressing conditions) as alternative carbon sources. […]

As for `CN(CC[C@H](N)CC(=O)N[C@H]1C=C[C@H](n2ccc(N)nc2=O)O[C@@H]1C(=O)O)C(=N)N` [blasticidin], in experiment [1] (C. albicans SC5314, 5 μl spots, 10 to 0.06 mg/ml, overnight growth), the “antifungal (fungicidal) activity by halo assay” value is “sensitive”.

For nourseothricin, the “antifungal activity by halo assay” value in experiment [2] is reported as “potent antifungal activity”. Besides, the “cross-resistance conferred by KanR” value in experiment [3] was “failed to confer resistance”. In addition, the “growth of strains lacking SAT in the presence of the drug” value in experiment [4] is reported as “failed to grow”. Besides, the “concentration at which C. albicans is sensitive” value in experiment [1] (C. albicans) was “about 200 μg/ml”. In addition, the “effect of medium on antifungal effectiveness” value in experiment [1] (rich, high-salt YPD plates versus minimal YNB plates) is “dramatically more effective on rich media”.
